# In PubChem BioAssay AID2060362 (Molecular Pharmacology Branch, DTP, NCI, 2025):
# Several values for one entry are separate records, joined by “and”; a condition that tells them apart may be missing. Equal values may be shown once.
# Tested on: 128128-338-R-J1-PDC spheroids, viability % test/control
# Experiment: Anticancer human tumor 128128-338-R-J1-PDC patient-derived melanoma cell line growth inhibition [TAK]
# Settings: spheroids with HUVEC and MSC; for viability, T/C: stronger effect = lower value
# From the text: Combinatorial screen of targeted agents with TAK-243 and ipatasertib in multi-cell type tumor spheroids
# A high-throughput screen of multi-cell type tumor spheroids was designed to identify active combinations of targeted small molecules and TAK-243 or ipatasertib. Complex spheroids include a stromal component modeled by human endothelial cells (HUVEC) and fibroblasts modeled by human mesenchymal stem cells (MSCs). The concentration ranges selected for each drug and investigational agent were based upon clinically achievable concentrations if the clinical Cmax of the agent was known.
# Compounds. The drugs and investigational agents: TAK-243 (785004), ipatasertib (767898), everolimus (733504), selumetinib (741078), bortezomib (756655), trametinib (758246), ixazomib (758254), vemurafenib (761431), dabrafenib (764134), sapanisertib (764658), alpelisib (765974), and copanlisib (816437), were obtained from the National Cancer Institute (NCI) Developmental Therapeutics Program Chemical Repository. The FDA-approved anticancer drug set is available from the NCI Developmental Therapeutics Program. […] The stock solutions were prepared in dimethyl sulfoxide (DMSO, Sigma-Aldrich, St. Louis, MO, cat. D2650) at 800-fold the tested concentration and stored at -70 degrees C prior to their use. All drugs and investigational agents were tested over a range starting from a high concentration at or near the clinical Cmax and decreasing in half-log increments. If the clinical Cmax for an agent had not been determined, the highest concentration tested was 10 microM.
# NCI60 Cell Culture. NCI60 cell lines were obtained from the NCI Developmental Therapeutics Program Tumor Repository. For each lot of cells, the Repository performed Applied Biosystems AmpFLSTR Identifiler testing with PCR amplification to confirm consistency with the published Identifier STR profile for each cell line. Cells were kept in continuous culture for no more than 20 passages. The optimal seeding densities for each of the cell lines at each time point assessed were determined prior to performing the concentration response studies. Briefly, the NCI60 human tumor lines were grown as monolayers in RPMI 1640 medium supplemented with 10% FBS and 2 mmol/L L-glutamine.
# An additional 2 lines were from the NCI60 cell line panel including melanomas, MALME-3M and SK-MEL-2. Pooled donor human umbilical vein endothelial cells (HUVEC, Lonza, cat. CC-2519) and human mesenchymal stem cells (hMSC, Lonza, cat. PT-2501) were purchased from Lonza (Walkersville, MD).
# PDMR cell lines were grown in complete medium (DC medium): Dulbecco's modified Eagle's medium (DMEM)/F12 supplemented with 5% fetal bovine serum (FBS), 2 mM L-glutamine, 100 U/mL penicillin and 100 µg/ml streptomycin, 0.4 µg/ml hydrocortisone, 10 ng/ml epidermal growth factor (EGF) recombinant human protein, 24 µg/mL adenine, and 0.1 mg/mL primocin. During culture from frozen stock vials, PDMR cells were cultured in the same medium containing 10 µM Y-27632 (see Table 3). The PDCs were cultured in complete DMEM/F12 media without 10 microM Y-27632 dihydrochloride for at least two passages prior to the screen. The pooled donor HUVEC and hMSC were cultured in endothelial cell growth medium 2 (PromoCell, Heidelberg, Germany, cat. C-22011) and mesenchymal stem cell growth medium 2 (PromoCell, cat. C-28009), respectively. For all experiments, HUVEC and hMSC were used at passages </=5.
# For the pre-screen, cell seeding densities were determined from a titration spanning the range from 5,000 to 313 cells per well. The mct-spheroids including 60% malignant cells, 25% HUVEC and 15% MSC dispensed as a mixture into U-bottom Ultra-Low Attachment 384-well plates (Corning, NY)
# High-throughput Drug Combination Screening.
# Prior to their inoculation into 384-well plates, malignant cells, HUVEC, and hMSC were removed from T flasks using TrypLE express (Thermo Fisher Scientific, cat. 12605036) and harvested by centrifugation for 5 min at 233 x g. […]
# 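Also: spheroids exposed to compounds for 7 days.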
# 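For viability, T/C in this document: 100% = DMSO vehicle wells.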
smiles,measurement,setting,value
COc1c(OCCCN2CCOCC2)ccc2c3n(c(=NC(=O)c4cnc(N)nc4)nc12)CCN3 + CC(C)NCC(C(=O)N1CCN(c2ncnc3c2C(C)CC3O)CC1)c1ccc(Cl)cc1,IC50,"curve of first compound, second compound 0.3 µM",160 nM
same,IC50,"curve of first compound, second compound 0.949 µM",154 nM
same,IC50,"curve of first compound, second compound 3 µM",92.5 nM
same,IC50,"curve of first compound, second compound 9.49 µM",47.6 nM
same,IC50,"curve of first compound, second compound 30 µM",< 3.16 nM
same,"viability, T/C","second compound 0.3 µM, first compound 0.00316 µM",99.3%
same,"viability, T/C","second compound 0.3 µM, first compound 0.01 µM",103%
same,"viability, T/C","second compound 0.3 µM, first compound 0.0316 µM",85.7%
same,"viability, T/C","second compound 0.3 µM, first compound 0.1 µM",71.9%
same,"viability, T/C","second compound 0.3 µM, first compound 0.316 µM",19.8%
same,"viability, T/C","second compound 0.3 µM, first compound 1 µM",10.2%
same,"viability, T/C","second compound 0.949 µM, first compound 0.00316 µM",93.4%
same,"viability, T/C","second compound 0.949 µM, first compound 0.01 µM",107%
same,"viability, T/C","second compound 0.949 µM, first compound 0.0316 µM",90.3%
same,"viability, T/C","second compound 0.949 µM, first compound 0.1 µM",68.8%
same,"viability, T/C","second compound 0.949 µM, first compound 0.316 µM",19.5%
same,"viability, T/C","second compound 0.949 µM, first compound 1 µM",6.65%
same,"viability, T/C","second compound 3 µM, first compound 0.00316 µM",90.8%
same,"viability, T/C","second compound 3 µM, first compound 0.01 µM",88.3%
same,"viability, T/C","second compound 3 µM, first compound 0.0316 µM",77.7%
same,"viability, T/C","second compound 3 µM, first compound 0.1 µM",47.3%
same,"viability, T/C","second compound 3 µM, first compound 0.316 µM",19.3%
same,"viability, T/C","second compound 3 µM, first compound 1 µM",6.49%
same,"viability, T/C","second compound 9.49 µM, first compound 0.00316 µM",62%
same,"viability, T/C","second compound 9.49 µM, first compound 0.01 µM",74.2%
same,"viability, T/C","second compound 9.49 µM, first compound 0.0316 µM",57.5%
same,"viability, T/C","second compound 9.49 µM, first compound 0.1 µM",33.3%
same,"viability, T/C","second compound 9.49 µM, first compound 0.316 µM",11.9%
same,"viability, T/C","second compound 9.49 µM, first compound 1 µM",8.21%
same,"viability, T/C","second compound 30 µM, first compound 0.00316 µM",19.5%
same,"viability, T/C","second compound 30 µM, first compound 0.01 µM",19.5%
same,"viability, T/C","second compound 30 µM, first compound 0.0316 µM",13.6%
same,"viability, T/C","second compound 30 µM, first compound 0.1 µM",8.31%
same,"viability, T/C","second compound 30 µM, first compound 0.316 µM",1.28%
same,"viability, T/C","second compound 30 µM, first compound 1 µM",0.56%
CC(C)(C)c1nc(-c2cccc(NS(=O)(=O)c3c(F)cccc3F)c2F)c(-c2ccnc(N)n2)s1,"viability, T/C",compound 0.0316 µM,61.1% and 60.1%
same,"viability, T/C",compound 0.1 µM,23.9% and 24%
same,"viability, T/C",compound 0.316 µM,4.21% and 5.44%
same,"viability, T/C",compound 1 µM,2.39% and 2.26%
same,"viability, T/C",compound 3.16 µM,2.82% and 2.69%
same,"viability, T/C",compound 10 µM,17.2% and 16.2%
same,IC50,curve of compound,44.7 nM and 43.6 nM
CCCS(=O)(=O)Nc1ccc(F)c(C(=O)c2c[nH]c3ncc(-c4ccc(Cl)cc4)cc23)c1F,"viability, T/C",compound 0.316 µM,79.4% and 79.2%
same,"viability, T/C",compound 1 µM,60.5% and 59.8%
same,"viability, T/C",compound 3.16 µM,12.7% and 14.3%
same,"viability, T/C",compound 10 µM,0.39% and 0.64%
same,"viability, T/C",compound 31.6 µM,1.44% and 0.22%
same,"viability, T/C",compound 100 µM,1.11% and 5.48%
same,IC50,curve of compound,1290 nM and 1280 nM
COC1CC2CCC(C)C(O)(O2)C(=O)C(=O)N2CCCCC2C(=O)OC(C(C)CC2CCC(OCCO)C(OC)C2)CC(=O)C(C)C=C(C)C(O)C(OC)C(=O)C(C)CC(C)C=CC=CC=C1C (stereo not drawn),"viability, T/C",compound 0.000316 µM,108% and 104%
same,"viability, T/C",compound 0.001 µM,102%
same,"viability, T/C",compound 0.00316 µM,96.4% and 93.1%
same,"viability, T/C",compound 0.01 µM,79.5% and 86.7%
same,"viability, T/C",compound 0.0316 µM,64.5% and 67.5%
same,"viability, T/C",compound 0.1 µM,51.6% and 53.8%
same,IC50,curve of compound,> 100 nM
Cn1cnc2c(F)c(Nc3ccc(Br)cc3Cl)c(C(=O)NOCCO)cc21,"viability, T/C",compound 0.00949 µM,95.7% and 94.9%
same,"viability, T/C",compound 0.03 µM,75.4% and 82.6%
same,"viability, T/C",compound 0.0949 µM,44.2% and 50.7%
same,"viability, T/C",compound 0.3 µM,9.03% and 14.9%
same,"viability, T/C",compound 0.949 µM,3.38% and 4.34%
same,"viability, T/C",compound 3 µM,3.13% and 2.58%
same,IC50,curve of compound,72.1 nM and 94.6 nM
